3 compounds from patent US11179438B1, “Chicken cathelicidins as a cancer therapy” (King Abdulaziz University, priority 2021, dated 2021) can be followed below.

For assay [1], the system named is breast (MCF-7) and colon cancer (HCT116) cell lines. It counts as cell-based, human. The settings on record: for survival rate / decline in the cell growth: 48 h; for survival rate: cell line not stated; for decline in the cell growth: 40 μg/ml, both cell lines; for growth: 72 h incubation, high concentration for cathelicidin-2 and -3, breast and colon cancer cell lines. How it is done: (§1) The breast (MCF-7) and colon cancer (HCT116) cell lines were purchased from the American Type Culture Collection (Manassas, Va., USA) and maintained at 37° C. in a 1:1 mixture of Dulbecco's modified Eagle's medium DMEM high glucose (4.5 g/L) supplemented with 10% FBS in Corning®T75 flasks containing 1.2 g/l sodium bicarbonate (Sigma-Aldrich, St. Louis, Mo., USA), 2.5 mM L-glutamine (Invitrogen Life Technologies), 15 mM HEPES, and 0.5 mM sodium pyruvate supplemented with 400 ng/ml hydrocortisone (Sigma-Aldrich) and 10% fetal bovine serum (PAA Laboratories, Pasching, Austria) in a humidity incubator with 5% CO2 and 95% air. The culture medium was refreshed every 2-3 days for a period of 5-7 days to allow for recovery from cryopreservation and for confluency to be reached. For cell subculturing, the cells were digested with 0.25% trypsin and 0.03% EDTA solution (Invitrogen Life Technologies). Upon reaching 90% confluency, cell numbers were counted. The density of cells was 5 λ103 cells/cm^2. After that, the MCF-7 cells were seeded into three 96 well plates and treated with three chicken cathelicidins peptides for three period of incubations (24 h-48 h-72 h) (Li et al., 2014).
(§2) To assess the altered cell viability, Cell Counting Kit-8 (CCK-8) assay (Dojindo Laboratories, Kumamoto, Japan) was performed. Briefly, the cells were seeded in 96-well plates at 5×10^3 cells/well containing 180 μl of medium and cultured for up to 72 h. At the end of each experiment, 5 μl of CCk-8 solution (5 mg/ml) was added into each well, and the cells were incubated for 2 h at 37° C. The optical density value was measured by using BioTek microplate reader (Dynatech Laboratories Inc., Chantilly, Va., USA) at 450 nm. The median inhibition concentration (IC50) values were calculated using the probity model, and the inhibition rate of cell proliferation was calculated as: inhibition rate (%)=1−A450 (test)/A450 (control)×100%. Data were calculated from three independent experiments, each performed in triplicate (Li et al., 2014).

Assay [2] deals with breast cancer cells (MCF-7). The assay can be described thus: Cell viability assay (CCK-8), MCF-7. It is filed as cell-based, human. The settings on record: 72 h. Here is the method: as §1, §2
Assay [3] relates to human colon cancer cell line (HCT116). The assay is described as follows: Cell viability assay (CCK-8), HCT116. It is filed as cell-based. The settings on record: 72 h. How it is done:
as §1, §2

Assay [4] has as its system Caspase-3 gene. The assay can be described thus: Expression of caspase-3 gene in MCF-7 cells (RT-PCR). It counts as cell-based, human. Here is the method: (§3) Total RNA was isolated from MCF-7 cells after chicken cathelicidins treatment using EZ RNA Clean Up Plus DNase Kit (EZ BioResearch, St Louis, Mo., USA)) following the manufacturer's instructions. RT-PCR was performed by using 1 μg of total RNA samples in the Access RT-PCR System (Bioneer Corporation Co., Ltd, South Korea) under the following conditions: first-strand DNA was synthesized with 12 cycles at 37° C. for 10 sec, 48° C. for 4 min and 60° C. for 30 sec and finally, heat inactivation at 95° C. for 5 mins then denatured at 94° C. for 5 min for the first cycle but for 30 sec for the additional 35 cycles; annealing according to Table 2 for 30 sec and extension at 72° C. for 2 min; and a final extension at 72° C. for 10 min. The PCR products were then subjected to electrophoresis in a 1.2% agarose gel and stained with ethidium bromide.
(§4) For RT-qPCR, cDNA was synthesized by using 0.5 μg of total RNA with a SuperScriptIII® Cells Direct cDNA Synthesis kit (Bioneer, Inc, Daejeon, Republic of Korea). The levels of IL-18, cyclin D1, cyclin A1, caspase-3 and 7 mRNA were amplified in triplicate using the SYBR-Green® Real-time PCR master mix (Biotool LLC, Houston, Tex., USA) on a LightCycler®480 Real-Time PCR system (Roche, Basel, Switzerland). […] The relative levels of gene expression were quantified by using the comparative CT method of ^−ΔΔCt (Livak and Schmittgen, 2001).

Assay [5] concerns Caspase-7 gene. The assay is described as follows: Expression of caspase-7 gene in MCF-7 cells (RT-PCR). It is filed as cell-based, human. Here is the method:
as §3, §4

Where [6] appears, read: moderate concentration (20 μg/ml).

Read-outs that look alike come from different tables or passages of the source. Ends that are not written are not given here.

Take `CC[C@H](C)[C@H](NC(=O)[C@H](CCCCN)NC(=O)[C@H](CCC(=O)O)NC(=O)[C@H](CCCCN)NC(=O)[C@H](CO)NC(=O)[C@H](CCCCN)NC(=O)[C@H](CCCNC(=N)N)NC(=O)[C@H](Cc1ccccc1)NC(=O)[C@H](Cc1ccccc1)NC(=O)[C@H](CC(=O)O)NC(=O)CNC(=O)[C@H](CC(C)C)NC(=O)[C@@H](N)CC(C)C)C(=O)NCC(=O)N[C@@H](CCCCN)C(=O)N[C@@H](CCC(=O)O)C(=O)N[C@@H](Cc1ccccc1)C(=O)N[C@@H](CCCCN)C(=O)N[C@@H](CCCNC(=N)N)C(=O)N[C@H](C(=O)N[C@H](C(=O)N[C@@H](CCC(N)=O)C(=O)N[C@@H](CCCNC(=N)N)C(=O)N[C@H](C(=O)N[C@@H](CCCCN)C(=O)N[C@@H](CC(=O)O)C(=O)N[C@@H](Cc1ccccc1)C(=O)N[C@@H](CC(C)C)C(=O)N[C@@H](CCCNC(=N)N)C(=O)N[C@@H](CC(N)=O)C(=O)N[C@@H](CC(C)C)C(=O)N[C@H](C(=O)N1CCC[C@H]1C(=O)N[C@@H](CCCNC(=N)N)C(=O)N[C@H](C(=O)N[C@@H](CCC(=O)O)C(=O)N[C@@H](CO)C(=O)O)[C@@H](C)O)C(C)C)[C@@H](C)CC)C(C)C)[C@@H](C)CC` [Cathelicidin-1]: the values for the survival rate in assay [1] (low concentration (10 μg/ml)) and in assay [1] (moderate concentration (printed 10 μg/ml)) were 25% and 12%, respectively.
As for “RFGRFLRKIRRFRPKVTITIQGSARF [Cathelicidin-2]”, the development rate amounted to 72% in assay [2] (low concentration), 44% in assay [2] (setting [6]), 61.3% in assay [3] (low concentration) and 24% in assay [3] (setting [6]). In addition, in assay [1], the “decline in the cell growth” value amounted to 10%. This compound also displayed a growth in assay [1] of 7%. Further, the “caspase-3 gene expression relative to untreated cells” value in assay [4] is “two times greater”. Further, the “caspase-7 gene expression relative to untreated cells” value in assay [5] is given as “two-fold”.
With “RVKRFWPLVPVAINTVAAGINLYKAIRRK [Cathelicidin-3]”, the development rate in assay [2] (low concentration) was 73%; in assay [2] (setting [6]), 73%; in assay [3] (low concentration), 65%; in assay [3] (setting [6]), 43.5%. For the same compound, in assay [1], the “decline in the cell growth” value is reported as “about 7%”. Moreover, the growth in assay [1] was determined as 16%. Also, the “caspase-3 gene expression relative to untreated cells” value in assay [4] is listed as “two times greater”. Moreover, the “caspase-7 gene expression relative to untreated cells” value in assay [5] is reported as “two-fold”.
